This is an account of results in ChEMBL document CHEMBL4342403, “New evolutions in the BACE1 inhibitor field from 2014 to 2018” (Bioorg Med Chem Lett, 2019).

Assay [1] deals with Mus musculus. Put plainly: In vivo inhibition of BACE1 in C57B1/6J mouse assessed as reduction in amyloidbeta 40 level in brain at 30 mg/kg, po measured at 4 hrs post dose by AlphaLISA relative to control. Type of assay: functional. In general terms: In Alpha technology, singlet oxygen from a donor bead excites a nearby acceptor bead.
The test system of assay [2] is Homo sapiens. Put plainly: In vivo inhibition of BACE1 in human assessed as reduction in amyloidbeta40 level in CSF at 30 mg administered once daily after 14 days relative to baseline. The class given is functional.
The test system of assay [3] is Homo sapiens. As to the kind of experiment: In vivo inhibition of BACE1 in human assessed as reduction in amyloidbeta40 level in CSF at 50 mg administered once daily after 14 days relative to baseline. Type of assay: functional.
Assay [4] deals with Homo sapiens. Put plainly: In vivo inhibition of BACE1 in human assessed as reduction in amyloidbeta40 level in CSF at 90 mg administered once daily after 14 days relative to baseline. The class given is functional.
In assay [5] the test system is Homo sapiens. As to the kind of experiment: In vivo inhibition of BACE1 in human assessed as reduction in amyloidbeta40 level in CSF at 85 mg, qd administered for 3 months relative to control. The class given is functional.
The species named for assay [6] is Homo sapiens. Put plainly: Selectivity ratio of IC50 for human BACE2 to IC50 for human BACE1.
Assay [7] has as its system Homo sapiens. Put plainly: In vivo inhibition of BACE1 in human assessed as reduction in amyloidbeta40 level in CSF at 100 mg relative to control. Type of assay: functional.
Assay [8] relates to Homo sapiens. As to the kind of experiment: In vivo inhibition of BACE1 in human assessed as reduction in amyloidbeta40 level in CSF at 200 mg relative to control. The class given is functional.
The subject of assay [9] is Homo sapiens. As to the kind of experiment: In vivo inhibition of BACE1 in human assessed as reduction in amyloidbeta40 level in CSF at 25 mg relative to control. Type of assay: functional.
Assay [10] concerns the target T1, Beta-secretase 1 (Homo sapiens, UniProt P56817). As to the kind of experiment: Inhibition of BACE1 (unknown origin) by cell-based assay.
Assay [11] deals with Homo sapiens. Put plainly: In vivo inhibition of BACE1 in human assessed as reduction in amyloidbeta40 level in CSF at 50 mg relative to control. Type of assay: functional.
Assay [12] relates to Rattus norvegicus. Put plainly: In vivo inhibition of BACE1 in Sprague Dawley rat assessed as reduction in amyloidbeta 40 level in brain at 30 mg/kg, po measured at 3 hrs post dose by ELISA relative to control. The class given is functional.
The subject of assay [13] is Rattus norvegicus. As to the kind of experiment: In vivo inhibition of BACE1 in Sprague Dawley rat assessed as reduction in amyloidbeta 40 level in brain at 10 mg/kg, po measured at 3 hrs post dose by ELISA relative to control. The class given is functional.
In assay [14] the test system is Canis familiaris. As to the kind of experiment: In vivo inhibition of BACE1 in dog assessed as reduction in amyloidbeta level in CSF at 1 mg/kg, po measured at 48 hrs post dose relative to control. The settings on record: Canis lupus familiaris. The class given is functional.
Assay [15] deals with Canis familiaris. Put plainly: In vivo inhibition of BACE1 in dog assessed as reduction in amyloidbeta level in CSF at 1 mg/kg, po measured at 24 hrs post dose relative to control. The class given is functional. The note with it: Canis lupus familiaris.
In assay [16] the target is T1, Beta-secretase 1. Put plainly: Inhibition of BACE1 (unknown origin).
The target in assay [17] is T2, Beta-secretase 2 (Homo sapiens, UniProt Q9Y5Z0).
T2 sequence (Q9Y5Z0 whole entry): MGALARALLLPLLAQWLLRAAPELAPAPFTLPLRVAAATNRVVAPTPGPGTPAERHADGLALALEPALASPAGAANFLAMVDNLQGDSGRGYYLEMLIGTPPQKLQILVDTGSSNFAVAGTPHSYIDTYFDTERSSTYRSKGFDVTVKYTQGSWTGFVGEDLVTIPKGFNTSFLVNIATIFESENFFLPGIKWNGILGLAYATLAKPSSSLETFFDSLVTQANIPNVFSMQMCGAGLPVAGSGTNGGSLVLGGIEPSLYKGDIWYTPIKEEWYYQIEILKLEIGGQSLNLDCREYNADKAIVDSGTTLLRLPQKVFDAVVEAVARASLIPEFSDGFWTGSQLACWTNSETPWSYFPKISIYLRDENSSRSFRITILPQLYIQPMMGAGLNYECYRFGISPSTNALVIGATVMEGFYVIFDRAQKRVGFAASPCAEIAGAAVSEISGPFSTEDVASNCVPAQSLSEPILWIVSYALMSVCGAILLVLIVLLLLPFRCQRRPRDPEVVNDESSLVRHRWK
Put plainly: Inhibition of BACE2 (unknown origin).

For assay [18], the system named is Rattus norvegicus. As to the kind of experiment: In vivo inhibition of BACE1 in CD-IGS rat assessed as reduction in amyloidbeta 40 level in CSF at 10 mg/kg, po measured at 3 hrs post dose by sandwich ELISA relative to control. The class given is functional. For orientation: In an ELISA, binding on a coated surface is turned into a signal by an enzyme label.
Assay [19] deals with T2, Beta-secretase 2. Put plainly: Inhibition of human BACE2 preincubated for 30 mins followed by QSY7- EISEVNLDAEFC-Eu-amide substrate addition and measured after […] by HTRF assay. For orientation: Time-resolved FRET reads energy transfer from a long-lived donor to a nearby acceptor.
Assay [20] deals with T1, Beta-secretase 1. As to the kind of experiment: Inhibition of human BACE1 catalytic domain preincubated for 30 mins followed by QSY7-EISEVNLDAEFC-Europium-amide substrate addition and measured after […] by HTRF assay.
For assay [21], the target named is T1, Beta-secretase 1. Put plainly: Inhibition of BACE1 in HEK293 cells harboring APP assessed as reduction in amyloidbeta 40 level incubated for 18 to 20 hrs by AlphaLISA Assay. Type of assay: cell-based.
Assay [22] deals with Mus musculus. Put plainly: In vivo inhibition of BACE1 in C57B1/6J mouse assessed as reduction in amyloidbeta 40 level in brain at 30 mg/kg, po measured at 4 hrs post dose by ELISA relative to control. The class given is functional.

SMILES strings stand for the structures. Some results are limits rather than exact numbers.

T1 sequence (P56817 whole entry): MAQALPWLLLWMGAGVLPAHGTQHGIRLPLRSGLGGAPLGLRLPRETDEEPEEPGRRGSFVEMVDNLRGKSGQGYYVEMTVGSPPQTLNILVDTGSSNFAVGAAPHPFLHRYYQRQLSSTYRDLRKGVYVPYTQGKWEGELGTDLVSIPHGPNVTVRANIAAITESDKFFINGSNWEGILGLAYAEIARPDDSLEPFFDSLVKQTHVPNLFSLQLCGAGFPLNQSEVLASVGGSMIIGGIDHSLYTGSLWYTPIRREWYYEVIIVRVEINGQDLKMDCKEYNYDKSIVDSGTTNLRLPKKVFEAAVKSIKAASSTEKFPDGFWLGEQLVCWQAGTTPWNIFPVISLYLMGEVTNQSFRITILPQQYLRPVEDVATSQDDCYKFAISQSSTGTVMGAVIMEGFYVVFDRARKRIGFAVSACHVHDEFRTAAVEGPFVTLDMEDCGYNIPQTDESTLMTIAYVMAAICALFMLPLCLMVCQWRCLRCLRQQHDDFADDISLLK

Usually inhibition in vivo stands for the share of the control response that was lost under treatment. For the compound `Cc1cc(C#N)cnc1C(=O)Nc1ccc(F)c([C@@]2(C)N=C(N)C(C)(C)[S@@]3(=O)=NCC[C@@H]23)n1`, the inhibition in vivo at 30 mg/kg in the assay with Mus musculus [1] turned out to be 60%.

For `C[C@@]1(c2cc(NC(=O)c3ccc(C#N)cn3)ccc2F)C=CSC(N)=N1` [ATABECESTAT], the “inhibition (INH)” value in the assay with Homo sapiens [2], with Homo sapiens [3] and in the assay with Homo sapiens [4] was more than 80% throughout.

Turning to `C[C@@]1(c2nc(NC(=O)c3ncc(C(F)(F)F)cc3Cl)ccc2F)CO[C@@](C)(C(F)(F)F)C(N)=N1`, in the assay with Homo sapiens [5], the “inhibition (INH)” value was more than 90%.

For `CC(F)(F)[C@H]1OC[C@]2(c3cc(NC(=O)c4cnc(-n5cncn5)cn4)ccc3F)N=C(N)SC[C@H]12`, the Ratio IC50 in the assay filed under Homo sapiens [6] was more than 400.

For orientation: IC50 means the concentration that inhibits the measured activity by half. For `C[C@H]1OC[C@]2(c3cc(NC(=O)c4cnc(C(F)F)cn4)ccc3F)N=C(N)SC[C@H]12` [ELENBECESTAT], the “inhibition (INH)” value was 83% in the assay with Homo sapiens [7], 90% with Homo sapiens [8], 56% with Homo sapiens [9] and 71% in the assay with Homo sapiens [11]. The IC50 against Beta-secretase 1 [10] was determined as 7 nM.

As to `COc1ccc(C(=O)Nc2ccc(F)c([C@]34COC[C@@]3(F)C[C@](C)(F)C(N)=N4)c2)nc1`, in the assay on Rattus norvegicus [12], the inhibition in vivo at 30 mg/kg is 64%. In the assay with Rattus norvegicus [13], the inhibition in vivo at 10 mg/kg came to 48%.

Consider `NC1=N[C@@]2(c3cc(NC(=O)c4ccc(C(F)(F)F)cn4)ccc3F)CO[C@H](C(F)(F)F)[C@H]2CO1`, for which the results for the inhibition in vivo at 1 mg/kg with Canis familiaris [14] and in the assay on Canis familiaris [15] were 55% and 65%, respectively. The values for the IC50 at Beta-secretase 1 [16], at Beta-secretase 1 [10] and against Beta-secretase 2 [17] were 11.9 nM, 1.03 nM and 602 nM, respectively.

In general, Ki refers to the dissociation constant of the complex between target and ligand, obtained from inhibition or displacement. Regarding `COc1cnc2c(Nc3ccc(F)c([C@]4(C)CS(=O)(=O)N(C)C(N)=N4)c3)nccc2c1`, the inhibition in vivo at 10 mg/kg in the assay with Rattus norvegicus [18] is 68%. Further, the figures for the Ki at Beta-secretase 2 [19] and at Beta-secretase 1 [20] were 3.5 nM and 2.6 nM, respectively.

With `Cc1cc(C#N)cnc1C(=O)Nc1ccc(F)c([C@]2(C)CS3(=O)=NCCCCC3(C)C(N)=N2)c1` (stereo partly drawn), the IC50 at Beta-secretase 1 [21] amounted to 0.2 nM. For the same compound, the inhibition in vivo at 30 mg/kg in the assay on Mus musculus [22] is 52%.
